For one experiment, the target named is T1, HIF-1α (Homo sapiens, UniProt Q16665).
T1 construct: endogenous in cells; host or cells: ARPE-19 (ATCC CRL-2302)
Nature of the experiment: Analysis of HIF-1α protein expression (Western blot) in ARPE-19 cells under mixed hypoxic condition. The experiment is classed as cell-based. The following applies: values marked * in the table, mixed hypoxic condition (1% oxygen + CoCl2) for 24 hours, concentration range at which HIF-1α expression is reduced by 50% vs untreated control, read-out: IC50 HIF-1α, Hypoxia(24h). The essentials: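 ARPE-19 cells were pretreated 16 h or 2 h with compound (0.1 nM–10 µM, serum-free DMEM/F12), then held 1 h or 24 h in mixed hypoxia (1% O2 plus CoCl2). HIF-1α was quantified by Western blot against β-actin; the concentration range giving ≥50% reduction vs untreated control was reported.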
Background: A western blot detects proteins with antibodies after separation by electrophoresis.

The next experiment relates to VEGF. Nature of the experiment: Evaluation of VEGF protein secretion level (Human VEGF ELISA) in ARPE-19 cell medium under hypoxic conditions. The following applies: ARPE-19 cells; pretreated 2 hours, 24 hours hypoxic conditions; secreted VEGF in medium supernatant by ELISA; concentration range reducing VEGF by 50% vs untreated control; read-out: IC50 VEGF. The experiment is classed as cell-based. A digest of the protocol:
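Human ARPE-19 cells were pretreated 2 h with compound (0.1 nM–10 µM, in DMEM/F12 with 1% FBS), then held 24 h in hypoxia (1% O2, 5% CO2). Secreted VEGF in the supernatant was quantified by ELISA (A450). The value is the concentration range giving ≥50% VEGF reduction versus untreated control.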
In general terms: An ELISA detects its analyte on a solid surface through an enzyme-linked reagent.

As usually defined, the IC50 is the concentration that inhibits the measured activity by half.

T1 sequence (Q16665 whole entry): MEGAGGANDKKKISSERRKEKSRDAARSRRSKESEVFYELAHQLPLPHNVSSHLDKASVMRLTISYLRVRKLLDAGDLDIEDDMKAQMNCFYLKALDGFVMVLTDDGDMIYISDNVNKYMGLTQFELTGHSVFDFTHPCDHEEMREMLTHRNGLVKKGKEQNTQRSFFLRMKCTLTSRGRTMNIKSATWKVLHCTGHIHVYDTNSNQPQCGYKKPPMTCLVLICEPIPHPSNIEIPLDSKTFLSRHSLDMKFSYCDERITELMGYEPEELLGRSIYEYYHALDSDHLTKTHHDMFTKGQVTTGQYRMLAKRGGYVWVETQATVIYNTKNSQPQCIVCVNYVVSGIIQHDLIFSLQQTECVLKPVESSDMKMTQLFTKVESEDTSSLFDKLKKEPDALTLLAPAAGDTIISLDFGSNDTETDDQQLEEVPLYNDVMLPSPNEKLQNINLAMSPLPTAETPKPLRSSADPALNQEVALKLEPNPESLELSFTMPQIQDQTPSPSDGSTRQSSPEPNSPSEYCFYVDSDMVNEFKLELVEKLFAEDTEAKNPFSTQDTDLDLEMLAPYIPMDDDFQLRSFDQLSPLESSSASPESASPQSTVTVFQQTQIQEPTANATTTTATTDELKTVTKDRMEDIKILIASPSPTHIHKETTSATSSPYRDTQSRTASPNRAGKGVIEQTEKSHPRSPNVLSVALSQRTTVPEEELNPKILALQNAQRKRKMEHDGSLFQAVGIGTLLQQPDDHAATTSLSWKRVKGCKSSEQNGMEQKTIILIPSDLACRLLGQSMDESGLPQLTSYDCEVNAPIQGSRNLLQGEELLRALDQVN

On to `Cn1cc(-n2cc(-c3cc(F)cc(CNC(=O)c4ncnc5nc(C6CCCC6)[nH]c45)c3)cn2)cn1` [Example 128, 8-Cyclopentyl-N-(3-fluoro-5-(1'-methyl-1'H-[1,4'-bipyrazol]-4-yl)benzyl)-7H-purine-6-carboxamide], for which the DC50 at HIF-1α is less than 100 nM. In addition, the IC50 with VEGF was less than 100 nM.
With `CN1CCC(Nc2cc(F)cc(CNC(=O)c3ncnc4nc(C5CCCC5)[nH]c34)c2)CC1` [Example 129, 8-Cyclopentyl-N-(3-fluoro-5-((1-methylpiperidin-4-yl)amino)benzyl)-7H-purine-6-carboxamide], the DC50 on HIF-1α lay in the range of 1000 to 10000 nM. For the same compound, the IC50 in the experiment with VEGF is greater than 10000 nM.
As to `O=C(NCc1cc(F)cc(Nc2ccsc2)c1)c1ncnc2nc(C3CCCC3)[nH]c12` [Example 130, 8-Cyclopentyl-N-(3-fluoro-5-(thiophen-3-ylamino)benzyl)-7H-purine-6-carboxamide], the DC50 at HIF-1α is less than 100 nM. Also, the half-maximal inhibitory concentration (IC50) with VEGF is 100 to 1000 nM.
Consider `O=C(NCc1cc(F)cc(N2CCN(c3ccc(F)cc3)CC2)c1)c1ncnc2nc(C3CCCC3)[nH]c12` [Example 131, 8-Cyclopentyl-N-(3-fluoro-5-(4-(4-fluorophenyl)piperazin-1-yl)benzyl)-7H-purine-6-carboxamide], for which the DC50 at HIF-1α lay within 1000 to 10000 nM. In the experiment with VEGF, the IC50 was greater than 10000 nM.
Consider `O=C(NCc1cc(F)cc(-c2nnc(-c3ccc(F)cc3)o2)c1)c1ncnc2nc(C3CCCC3)[nH]c12` [Example 132, 8-Cyclopentyl-N-(3-fluoro-5-(5-(4-fluorophenyl)-1,3,4-oxadiazol-2-yl)benzyl)-7H-purine-6-carboxamide], for which, at HIF-1α, the DC50 was 1000 to 10000 nM. Further, the 50% inhibitory concentration (IC50) with VEGF was greater than 10000 nM.
With `O=C(O)c1ccc(Nc2cc(F)cc(CNC(=O)c3ncnc4nc(C5CCCC5)[nH]c34)c2)cc1` [Example 133, 4-((3-((8-Cyclopentyl-7H-purine-6-carboxamido)methyl)-5-fluorophenyl)amino)benzoic acid], the DC50 on HIF-1α lay in the range of 100 to 1000 nM. For the same compound, the IC50 in the experiment with VEGF was greater than 10000 nM.
Taken in the same sequence, the figures for `O=C(NCc1cc(F)cc(Nc2nnco2)c1)c1ncnc2nc(C3CCCC3)[nH]c12` [Example 134, N-(3-((1,3,4-oxadiazol-2-yl)amino)-5-fluorobenzyl)-8-cyclopentyl-7H-purine-6-carboxamide] were 100 to 1000 nM and greater than 10000 nM.
On to `O=C(NCc1cc(F)cc(NC2CCCC2)c1)c1ncnc2nc(C3CCCC3)[nH]c12` [Example 135, 8-Cyclopentyl-N-(3-(cyclopentylamino)-5-fluorobenzyl)-7H-purine-6-carboxamide], for which the DC50 on HIF-1α fell in the range of 100 to 1000 nM. In the experiment with VEGF, the IC50 was greater than 10000 nM.
Take `O=C(NCc1cc(F)cc(Nc2nncs2)c1)c1ncnc2nc(C3CCCC3)[nH]c12` [Example 136, N-(3-((1,3,4-thiadiazol-2-yl)amino)-5-fluorobenzyl)-8-cyclopentyl-7H-purine-6-carboxamide]: at HIF-1α, the DC50 was 100 to 1000 nM. In the experiment on VEGF, the IC50 was greater than 10000 nM.
On to `O=C(NCc1cc(F)cc(N2CCCN(c3ccc(F)cc3)CC2)c1)c1ncnc2nc(C3CCCC3)[nH]c12` [Example 137, 8-Cyclopentyl-N-(3-fluoro-5-(4-(4-fluorophenyl)-1,4-diazepan-1-yl)benzyl)-7H-purine-6-carboxamide], for which the DC50 at HIF-1α is 100 to 1000 nM. Further, in the experiment on VEGF, the IC50 is greater than 10000 nM.
Taken in the same sequence, the figures for `O=C(NCc1cc(F)cc(-c2cnn(C3CCCC3)c2)c1)c1ncnc2nc(C3CCCC3)[nH]c12` [Example 138, 8-Cyclopentyl-N-(3-(1-cyclopentyl-1H-pyrazol-4-yl)-5-fluorobenzyl)-7H-purine-6-carboxamide] were less than 100 nM and 100 to 1000 nM.
With `O=C(NCc1cc(F)cc(-c2cnn(C3CCCCC3)c2)c1)c1ncnc2nc(C3CCCC3)[nH]c12` [Example 139, N-(3-(1-cyclohexyl-1H-pyrazol-4-yl)-5-fluorobenzyl)-8-cyclopentyl-7H-purine-6-carboxamide], the DC50 at HIF-1α was less than 100 nM. The IC50 in the experiment with VEGF was less than 100 nM.
Turning to `O=C(NCc1cc(F)cc(-c2cnn(C3CCOC3)c2)c1)c1ncnc2nc(C3CCCC3)[nH]c12` (stereo not drawn) [Example 140, 8-Cyclopentyl-N-(3-fluoro-5-(1-(tetrahydrofuran-3-yl)-1H-pyrazol-4-yl)benzyl)-7H-purine-6-carboxamide], the DC50 at HIF-1α is less than 100 nM. In addition, the IC50 in the experiment on VEGF was greater than 10000 nM.
Taken in the same sequence, the figures for `O=C(NCc1cc(F)cc(-c2cnn(-c3cscn3)c2)c1)c1ncnc2nc(C3CCCC3)[nH]c12` [Example 141, 8-Cyclopentyl-N-(3-fluoro-5-(1-(thiazol-4-yl)-1H-pyrazol-4-yl)benzyl)-7H-purine-6-carboxamide] were less than 100 nM and less than 100 nM.
Taken in the same sequence, the figures for `Cn1ccc(Nc2cc(F)cc(CNC(=O)c3ncnc4nc(C5CCCC5)[nH]c34)c2)c1` [Example 142, 8-Cyclopentyl-N-(3-fluoro-5-((1-methyl-1H-pyrrol-3-yl)amino)benzyl)-7H-purine-6-carboxamide] were 100 to 1000 nM and greater than 10000 nM.
Taken in the same sequence, the figures for `O=C(NCc1cc(F)cc(-c2cnn(-c3cc[s+]([O-])c3)c2)c1)c1ncnc2nc(C3CCCC3)[nH]c12` (stereo not drawn) [Example 143, 8-Cyclopentyl-N-(3-fluoro-5-(1-(1-oxidothiophen-3-yl)-1H-pyrazol-4-yl)benzyl)-7H-purine-6-carboxamide] were 1000 to 10000 nM and greater than 10000 nM.
With `Cn1cc(Nc2cc(F)cc(CNC(=O)c3ncnc4nc(C5CCC(F)(F)C5)[nH]c34)c2)cn1` (stereo not drawn) [Example 144, 8-(3,3-Difluorocyclopentyl)-N-(3-fluoro-5-((1-methyl-1H-pyrazol-4-yl)amino)benzyl)-7H-purine-6-carboxamide], at HIF-1α, the DC50 was less than 100 nM. Also, the IC50 in the experiment on VEGF is 100 to 1000 nM.
Taken in the same sequence, the figures for `[2H]c1c([2H])c([2H])c(-n2cc(-c3cc(F)cc(CNC(=O)c4ncnc5nc(C6CCCC6)[nH]c45)c3)cn2)c([2H])c1[2H]` [Example 145, 8-Cyclopentyl-N-(3-fluoro-5-(1-phenyl-d5-1H-pyrazol-4-yl)benzyl)-7H-purine-6-carboxamide] were less than 100 nM and 100 to 1000 nM.
`Cc1nn(-c2ccc(F)cc2)cc1-c1cc(F)cc(CNC(=O)c2ncnc3nc(C4CCCC4)[nH]c23)c1` [Example 146, 8-Cyclopentyl-N-(3-fluoro-5-(1-(4-fluorophenyl)-3-methyl-1H-pyrazol-4-yl)benzyl)-7H-purine-6-carboxamide]: on HIF-1α, the DC50 was 100 to 1000 nM. Further, the IC50 with VEGF lay within 100 to 1000 nM.
Take `Cc1c(-c2cc(F)cc(CNC(=O)c3ncnc4nc(C5CCCC5)[nH]c34)c2)cnn1-c1ccc(F)cc1` [Example 147, 8-Cyclopentyl-N-(3-fluoro-5-(1-(4-fluorophenyl)-5-methyl-1H-pyrazol-4-yl)benzyl)-7H-purine-6-carboxamide]: the DC50 on HIF-1α was 100 to 1000 nM. Moreover, in the experiment with VEGF, the IC50 was 100 to 1000 nM.
For `[2H]c1c([2H])c([2H])c(-n2cc(-c3cc(F)cc(CNC(=O)c4ncnc5nc(C6CCC(F)(F)C6)[nH]c45)c3)cn2)c([2H])c1[2H]` (stereo not drawn) [Example 148, 8-(3,3-Difluorocyclopentyl)-N-(3-fluoro-5-(1-(phenyl-d5)-1H-pyrazol-4-yl)benzyl)-7H-purine-6-carboxamide], the DC50 at HIF-1α was less than 100 nM. Also, the IC50 in the experiment on VEGF fell in the range of 100 to 1000 nM.
